Reference: patent publication US20060079566A1, “PDK-1/Akt signaling inhibitors” (priority 2003, published 2006)

Legend:
Type in all cases: cell-based
[1] = system: HOP-92; assay: NCI DTP screen (SRB), Non-Small Cell Lung Cancer; details: Homo sapiens, HOP-92, read-out: LC50
Procedure: After 24 h, two plates of each cell line are fixed in situ with TCA, to represent a measurement of the cell population for each cell line at the time of drug addition (Tz). Experimental drugs are solubilized in dimethyl sulfoxide at 400-fold the desired final maximum test concentration and stored frozen prior to use. […]
Following drug addition, the plates are incubated for an additional 48 h at 37° C., 5% CO2, 95% air, and 100% relative humidity. […] Bound stain is subsequently solubilized with 10 mM trizma base, and the absorbance is read on an automated plate reader at a wavelength of 515 nm. […] Using the seven absorbance measurements [time zero, (Tz), control growth, (C), and test growth in the presence of drug at the five concentration levels (Ti)], the percentage growth is calculated at each of the drug concentrations levels. Percentage growth inhibition is calculated as: [(Ti−Tz)/(C−Tz)]×100 for concentrations for which Ti>/=Tz [(Ti−Tz)/Tz]×100 for concentrations for which Ti<Tz […]

[2] = system: 786-0; assay: NCI DTP screen (SRB), Renal Cancer; details: Homo sapiens
Procedure: (§1) Screening of compounds 70 and 71 against several cancer cell lines The human tumor cell lines of the cancer screening panel are grown in RPMI 1640 medium containing 5% fetal bovine serum and 2 mM L-glutamine. For a typical screening experiment, cells are inoculated into 96 well microtiter plates in 100 μL at plating densities ranging from 5,000 to 40,000 cells/well depending on the doubling time of individual cell lines. After cell inoculation, the microtiter plates are incubated at 37° C., 5% CO2, 95% air and 100% relative humidity for 24 h prior to addition of experimental drugs.
(§2) After 24 h, two plates of each cell line are fixed in situ with TCA, to represent a measurement of the cell population for each cell line at the time of drug addition (Tz). Experimental drugs are solubilized in dimethyl sulfoxide at 400-fold the desired final maximum test concentration and stored frozen prior to use. At the time of drug addition, an aliquot of frozen concentrate is thawed and diluted to twice the desired final maximum test concentration with complete medium containing 50 μg/ml gentamicin. Additional four, 10-fold or ½ log serial dilutions are made to provide a total of five drug concentrations plus control. Aliquots of 100 μl of these different drug dilutions are added to the appropriate microtiter wells already containing 100 μl of medium, resulting in the required final drug concentrations.
(§3) Following drug addition, the plates are incubated for an additional 48 h at 37° C., 5% CO2, 95% air, and 100% relative humidity. For adherent cells, the assay is terminated by the addition of cold TCA. Cells are fixed in situ by the gentle addition of 50 μl of cold 50% (w/v) TCA (final concentration, 10% TCA) and incubated for 60 minutes at 4° C. The supernatant is discarded, and the plates are washed five times with tap water and air dried. Sulforhodamine B (SRB) solution (100 μl) at 0.4% (w/v) in 1% acetic acid is added to each well, and plates are incubated for 10 minutes at room temperature. After staining, unbound dye is removed by washing five times with 1% acetic acid and the plates are air dried. Bound stain is subsequently solubilized with 10 mM trizma base, and the absorbance is read on an automated plate reader at a wavelength of 515 nm. For suspension cells, the methodology is the same except that the assay is terminated by fixing settled cells at the bottom of the wells by gently adding 50 μl of 80% TCA (final concentration, 16% TCA). Using the seven absorbance measurements [time zero, (Tz), control growth, (C), and test growth in the presence of drug at the five concentration levels (Ti)], the percentage growth is calculated at each of the drug concentrations levels. Percentage growth inhibition is calculated as: [(Ti−Tz)/(C−Tz)]×100 for concentrations for which Ti>/=Tz [(Ti−Tz)/Tz]×100 for concentrations for which Ti<Tz
(§4) Three dose response parameters are calculated for each experimental agent. […] The drug concentration resulting in total growth inhibition (TGI) is calculated from Ti=Tz. […] Values are calculated for each of these three parameters if the level of activity is reached; however, if the effect is not reached or is exceeded, the value for that parameter is expressed as greater or less than the maximum or minimum concentration tested.

[3] = system: SN12C; assay: NCI DTP screen (SRB), Renal Cancer; details: Homo sapiens
Procedure: as §1, §2, §3, §4

[4] = system: ACHN; assay: NCI DTP screen (SRB), Renal Cancer; details: Homo sapiens
Procedure: as §1, §2, §3, §4

[5] = system: TK-10; assay: NCI DTP screen (SRB), Renal Cancer; details: Homo sapiens
Procedure: as §1, §2, §3, §4

[6] = system: CAKI-1; assay: NCI DTP screen (SRB), Renal Cancer; details: Homo sapiens
Procedure: as §1, §2, §3, §4

NCC(=O)Nc1ccc(-n2nc(C(F)(F)F)cc2-c2ccc3c(ccc4ccccc43)c2)cc1 [Compound 70, 2-Amino-N-{4-[5-(2-phenanthrenyl)-3-(trifluoromethyl)-1H-pyrazol-1-yl]-phenyl}-acetamide]
CC50 [1]: 5.87 µM
GI50 ([2]; 786-0): 1.2 µM
CC50 ([2]; 786-0, read-out: LC50): 6.79 µM
GI50 [3]: 1.58 µM
GI50 [4]: 1.42 µM
GI50 ([5]; TK-10): 1.48 µM
CC50 ([5]; TK-10, read-out: LC50): 6.47 µM
GI50 [6]: 0.703 µM
